# Assay results taken from patent publication US10543246B2, “Composition for preventing or treating hyperlipidemia” (HAWON PHARM. CORPORATION, priority 2014, dated 2020).
# How the values were obtained:
# Format in all cases: in vivo, SD rats (Sprague-Dawley rats)
# [1] = test system: SD rats with a high cholesterol diet (hyperlipidemia model); assay: Measurement of blood lipid in high cholesterol diet SD rats; conditions: Ex. compositions 1000 mg/kg/day, atorvastatin 5 mg/kg/day
# Protocol: 6-Week-old male SD rats (Sprague-Dawley rats, body weight 180-220 g) were purchased from BioLink (Eumseong, Republic of Korea) and acclimated for a week. […] Drinking water was freely supplied. A room temperature of 22.0+/−2.0° C., a relative humidity of 50.0+/−10.0%, an illumination time of 12 hours (08:00 to 20:00), and an illuminance of 150 to 300 lux were set.
# At the end of the experiment, each group was sacrificed after fasting for 12 hours. Their blood was collected from the posterior vena cava and transferred to an EDTA tube to separate the plasma. In the separated plasma, total cholesterol (TC), LDL cholesterol (LDL-c), HDL cholesterol (HDL-c) and triglycerides (TG) were measured using a biochemical kit (Asan Pharmaceutical Co., Ltd., Seoul, Republic of Korea).
# The atherogenic index (AI) was calculated by the following equation (1) according to a method of Haulund et al. and the cardiac risk factor (CRF) was calculated by the following equation (2). Atherogenic Index(AI)=[(TC)−(HDL-c)]/[(HDL-c)] (1) Cardiac Risk Factor(CRF)=(TC)/(HDL-c) (2)
# [2] = test system: SD rats with a high cholesterol diet (hyperlipidemia model); assay: Lipid analysis of liver tissue in high cholesterol diet SD rats; conditions: liver lipid extract, oral, Ex. compositions 1,000 mg/kg, atorvastatin 5 mg/kg
# Protocol: (§1) 6-Week-old male SD rats (Sprague-Dawley rats, body weight 180-220 g) were purchased from BioLink (Eumseong, Republic of Korea) and acclimated for a week. They were formed into groups of five rats as described in Table 2 below, and solid feed (Rodent NIH031 Open Formula Auto, Zeigler Bros., USA) and a high cholesterol diet (D12451 with 1.25% cholesterol, Research Diets Inc., USA) were freely fed. Drinking water was freely supplied. A room temperature of 22.0+/−2.0° C., a relative humidity of 50.0+/−10.0%, an illumination time of 12 hours (08:00 to 20:00), and an illuminance of 150 to 300 lux were set.
# The total lipids in the liver were homogenized and then extracted using a Folch method. The extracted lipids were dissolved in an isopropanol solution, and then with the SPECTROstar Nano (BMG Labtech, Germany), total cholesterol and triglycerides in […] were colorimetrically quantified at 500 nm and 550 nm, respectively, using an enzyme reagent kit (Asan Pharmaceutical Co., Ltd., Seoul, Republic of Korea).
# [3] = test system: SD rats with a high cholesterol diet (hyperlipidemia model); assay: Measurement of body weight and liver weight, visual inspection of liver tissue; conditions: oral, 4 weeks, Ex. compositions 1,000 mg/kg, atorvastatin 5 mg/kg, mean of five rats
# Protocol: as §1
# The body weight before drug administration and the body weight after the end of the experiment were measured. The liver weight was measured by weighing the liver extracted after lethal bleeding on the day of autopsy, and visual inspection of liver tissue was performed.
structure (smiles),measurement,setting,value
CC(C)c1c(C(=O)Nc2ccccc2)c(-c2ccccc2)c(-c2ccc(F)cc2)n1CC[C@@H](O)C[C@@H](O)CC(=O)O [Atorvastatin],Cardiac Risk Factor (CRF),[1]; (TC)/(HDL-c),2.6
same,LDL/HDL,[1],0.9
same,Hepatic total cholesterol concentration,[2],146 mg/dL
same,Hepatic triglyceride concentration,[2],197 mg/dL
same,Body weight,[3],571.6 g
same,Liver weight,[3],24.5 g
same,Liver weight/Body weight,[3],4.26%
